Experimental data reported in the supplement of paper PMC10307832.

Tests used:
Assay in all cases: relative viability (nuclei count vs DMSO), 5 days (fraction); higher = more cells survive
[1] = compound: C(C(=O)C(=O)O)Br [Bromopyruvate] + CC(=O)Nc1cccc(-n2c(=O)n(C3CC3)c(=O)c3c(Nc4ccc(I)cc4F)n(C)c(=O)c(C)c32)c1 [Trametinib] (partner 0.02 µM)
Method in brief: (§1)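 Lung cancer cell lines in 1536-well plates were dosed by pin tool the day after seeding, either with one drug alone or with a fixed anchor-drug dose plus five library-drug doses (not always all listed) in √10 steps. After 5 days, cells were fixed and their nuclei stained in one step (final 0.05% Triton X-100, 1% formaldehyde, 1 ug/ml Hoechst), then counted on 4× images. Relative viability is the nuclei count in treated wells divided by that in vehicle wells. Values are medians of duplicate plates.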

[2] = compound: CC(O)(CS(=O)(=O)c1ccc(F)cc1)C(=O)Nc1ccc(C#N)c(C(F)(F)F)c1 [Bicalutamide] + CC1(C)CCC(c2ccc(Cl)cc2)=C(CN2CCN(c3ccc(C(=O)NS(=O)(=O)c4ccc(N[C@H](CCN5CCOCC5)CSc5ccccc5)c(S(=O)(=O)C(F)(F)F)c4)cc3)CC2)C1 [Navitoclax] (partner 0.5 µM)
Method in brief: as §1

[3] = compound: C(C(=O)C(=O)O)Br [Bromopyruvate] + CC(C)C[C@H](NC(=O)[C@H](Cc1ccccc1)NC(=O)c1cnccn1)B(O)O [Bortezomib] (partner 0.002 µM)
Method in brief: as §1

[4] = compound: CC(O)(CS(=O)(=O)c1ccc(F)cc1)C(=O)Nc1ccc(C#N)c(C(F)(F)F)c1 [Bicalutamide] + Cc1cc(Nc2cc(N3CCN(C)CC3)nc(Sc3ccc(NC(=O)C4CC4)cc3)n2)n[nH]1 [Tozasertib] (partner 0.1 µM)
Method in brief: as §1

UMC-11
relative viability ([1]; first compound 1 µM): 0.746 | relative viability ([1]; first compound 3.162 µM): 0.604 | relative viability ([1]; first compound 10 µM): 0.622 | relative viability ([1]; first compound 31.62 µM): 0.732 | relative viability ([1]; first compound 100 µM): 0.748 | relative viability ([2]; first compound 0.08 µM): 0.328 | relative viability ([2]; first compound 0.253 µM): 0.25 | relative viability ([2]; first compound 0.8 µM): 0.281 | relative viability ([2]; first compound 2.53 µM): 0.279 | relative viability ([3]; first compound 1 µM): 0.817 | relative viability ([3]; first compound 3.162 µM): 0.79 | relative viability ([3]; first compound 10 µM): 0.846 | relative viability ([3]; first compound 31.62 µM): 0.645 | relative viability ([3]; first compound 100 µM): 0.721 | relative viability ([4]; first compound 0.08 µM): 0.193 | relative viability ([4]; first compound 0.253 µM): 0.184 | relative viability ([4]; first compound 0.8 µM): 0.191 | relative viability ([4]; first compound 2.53 µM): 0.191
